# Experiments:
# [1] = Metabolic stability in human liver microsomes; format: in vitro ADME
# Description: Metabolic stability. The metabolic stability of compound 6 was evaluated using human liver microsomes (HLMs). Internal clearance values CLint were calculated by monitoring changes in compound concentration in the presence of microsomes per unit of time, according to the procedure proposed by Obach R. S. (Obach, R. S. Drug Metab. Dispos. 1999, 27, 1350-1359).
# Metabolic stability tests—methodology. Metabolic stability studies for compound 6 were performed using HLMs (Promega, Madison, WI, USA). For this purpose, 10 μL of compound 6 at a concentration of 1000 μM was diluted with 132 μL with tris-HCl buffer (100 mM, pH 7.4), followed by the addition of 8 μL of appropriate microsomes. The reaction mixture was preincubated at 37° C. for 5 minutes, followed by the addition of 50 μL of NADPH Regeneration System, supplied by Promega (Madison, WI, USA). After mixing, the whole mixture was incubated at 37° C. for 120 minutes. To complete the reaction, 200 μL of cold methanol was added to the tubes and centrifuged. The supernatant was subjected to UPLC/MS analysis, including fragmentation analysis. Four mixtures of 6 with HLMs were prepared to determine the internal clearance CLint. Each of these reactions was completed at a different time point, after 5, 15, 30 and 45 min, by the addition of cold methanol containing 50 μM internal standard. Then, according to literature guidelines (Obach, R. S. Drug Metab. Dispos. 1999, 27, 1350-1359), based on the plot of the relationship between the height of the peak from 6 and the height of the internal standard, the regression equation was determined and the reaction rate constant k was calculated. Then the constant k was substituted to equation (1).
# The calculated t1/2 value was then substituted into equation (2): […]
# HepG2 cells = experiment: In vitro hepatotoxicity, MTS cell viability assay; format: cell-based; conditions: 100 μM, 72 h incubation, p<0.05
# Description: In vitro hepatotoxicity assessment. The studies were conducted using the hepatoma HepG2 liver cancer cell line, which is used to assess the hepatotoxicity of the substance in vitro. A classic MTS colorimetric assay from Promega (Madison, WI, USA) was used to investigate the effect of 6 on HepG2 cell viability and proliferation. The compound was tested at four concentrations in the range (0.1-100 μM). Doxorubicin at a concentration of 1 μM was used as a reference cytostatic. In addition, the reference mitochondrial toxin carbonyl cyanide m-chlorophenylhydrazone (CCCP) at a concentration of 10 μM was also used (FIG. 10). […] In addition, cell viability was reduced to just 84% of the control, indicating a trace toxic effect of this compound on HepG2 cell lines. Due to the particular exposure of liver cells to the potential toxic effects of xenobiotics, an additional test was carried out with the HepG2 line in the form of luminescent measurement of ATP levels in cells, after a short 3-hour exposure to compound 6, in concentrations in the range of 1-100 μM. […]
# In vitro hepatotoxicity assessment—methodology. […] Plates were again incubated for 2-3 hours, followed by absorbance measurement at 490 nm with an EnSpire PerkinElmer (Waltham, MA, USA) reader. Statistical significance was calculated by one-way ANOVA variance analysis and the Bonferroni method. […]
# P-glycoprotein (Pgp) = target: T1, P-glycoprotein (Pgp) (Homo sapiens, UniProt P08183); experiment: Pgp-Glo Assay System (Pgp activity); format: in vitro ADME
# T1 construct: purchased Promega (Madison, WI, USA)
# T1 sequence (P08183 whole entry): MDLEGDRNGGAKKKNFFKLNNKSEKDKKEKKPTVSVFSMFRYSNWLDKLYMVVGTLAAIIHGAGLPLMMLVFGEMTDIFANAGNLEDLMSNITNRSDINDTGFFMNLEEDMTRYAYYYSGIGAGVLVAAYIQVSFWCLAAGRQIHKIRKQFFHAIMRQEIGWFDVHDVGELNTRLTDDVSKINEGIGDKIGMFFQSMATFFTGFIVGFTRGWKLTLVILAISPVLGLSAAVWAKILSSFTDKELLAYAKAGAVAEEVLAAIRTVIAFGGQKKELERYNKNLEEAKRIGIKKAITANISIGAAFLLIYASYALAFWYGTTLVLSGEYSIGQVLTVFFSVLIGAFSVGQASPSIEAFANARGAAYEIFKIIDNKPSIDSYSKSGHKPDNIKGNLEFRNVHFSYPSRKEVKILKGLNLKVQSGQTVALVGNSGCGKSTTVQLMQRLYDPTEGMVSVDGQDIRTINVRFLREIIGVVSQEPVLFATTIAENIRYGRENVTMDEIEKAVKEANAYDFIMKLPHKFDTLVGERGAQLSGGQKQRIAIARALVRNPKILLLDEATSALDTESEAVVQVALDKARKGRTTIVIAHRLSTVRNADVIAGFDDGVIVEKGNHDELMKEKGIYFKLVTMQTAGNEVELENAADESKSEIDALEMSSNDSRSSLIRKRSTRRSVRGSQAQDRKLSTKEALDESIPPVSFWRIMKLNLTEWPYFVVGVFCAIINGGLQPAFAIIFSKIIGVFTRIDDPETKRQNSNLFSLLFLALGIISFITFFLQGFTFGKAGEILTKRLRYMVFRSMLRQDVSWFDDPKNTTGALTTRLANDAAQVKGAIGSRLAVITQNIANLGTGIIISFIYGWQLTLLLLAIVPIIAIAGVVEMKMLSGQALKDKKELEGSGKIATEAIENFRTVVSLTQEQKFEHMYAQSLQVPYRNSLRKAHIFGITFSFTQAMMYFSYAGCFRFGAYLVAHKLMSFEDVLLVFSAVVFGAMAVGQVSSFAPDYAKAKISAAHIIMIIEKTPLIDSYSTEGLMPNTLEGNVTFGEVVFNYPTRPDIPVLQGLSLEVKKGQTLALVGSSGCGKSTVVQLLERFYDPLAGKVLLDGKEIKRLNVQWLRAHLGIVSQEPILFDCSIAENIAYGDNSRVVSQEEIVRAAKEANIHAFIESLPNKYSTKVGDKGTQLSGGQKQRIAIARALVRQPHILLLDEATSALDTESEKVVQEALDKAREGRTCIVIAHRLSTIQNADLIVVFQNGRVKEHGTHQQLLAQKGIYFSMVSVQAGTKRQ
# Description: Impact on Pgp activity. P-glycoprotein (Pgp) is an integral plasma membrane protein that, as an ATP-dependent […] pump, actively removes xenobiotics and can cause drug interactions. Pgp plays an important role in the absorption of drugs in the gastrointestinal tract and also through the blood-brain barrier. A commercial bioluminescent Pgp-Glo™ Assay System test (Promega, Madison, WI, USA) was used to study the effect of compound 6 on Pgp activity. The operation of the test is based on measuring changes in the level of ATP consumed by membranes containing the recombinant Pgp protein in the presence of test compounds. The results were presented as % of baseline activity and compared to reference compounds: selective Pgp inhibitor Na3VO4 and verapamil stimulator.
# Impact on Pgp activity—methodology. The tests were performed according to the protocol of the bioluminescent Pgp-Glo™ Assay System test provided by the Promega company (Madison, WI, USA). […] Bioluminescence was measured with a PerkinElmer multispecific EnSpire plate reader (Waltham, MA USA). […] The calculated difference between the luminescence values of the inhibitor-treated sample and the control sample was taken as 100% of the Pgp base activity and treated as a negative control in the test. […] Statistical significance was calculated by one-way ANOVA variance analysis and the Bonferroni method using GraphPad Prism 5. […]
compound,measurement,setting,value
"O=C(C(c1ccccc1)N1C(=O)CCC1=O)N1CCN(c2cccc(C(F)(F)F)c2)CC1 (racemic) [Compound 6, 1-(2-Oxo-1-phenyl-2-(4-(3-(trifluoromethyl)phenyl)piperazin-1-yl)ethyl)pyrrolidine-2,5-dione]",metabolites found by UPLC after incubation with HLMs,"[1]; 120 min incubation, UPLC/MS",three metabolites M1-M3
same,CLint scaled at 50 µM,"[1]; human, human liver microsomes, pH 7.4, incubation with HLMs, read-out: internal clearance CLint",5.8 mL/min/kg
same,internal clearance CLint,[1]; incubation with HLMs,5.6 mL/min/kg
same,"HepG2 cell viability, % of the control",HepG2 cells,84%
same,effect on Pgp activity,P-glycoprotein (Pgp); 50 μM,no effect on Pgp activity
same,"Pgp activity, % of baseline activity","P-glycoprotein (Pgp); 100 μM, inhibitory effect, p<0.01",38%
